Measurements published in the supplement of paper PMC6045584.
± gives the standard deviation of the averaged measurements.

Assays:
VISMODEGIB = compound: CS(=O)(=O)c1ccc(C(=O)Nc2ccc(Cl)c(-c3ccccn3)c2)c(Cl)c1 [VISMODEGIB]; assay: surviving fraction relative to DMSO-only wells; higher = less growth inhibition; details: exposure time: 5 days
How it was run: (§1)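 Viability was determined by CellTiter-Glo luminescence, expressed as surviving fraction normalised to the median of DMSO-only wells. The cells were log-phase tumour cell lines seeded at 250–500 per well in 384-well plates and, after 24 hours, exposed continuously for five days to inhibitors at 0.5, 1, 5, 10, 50, 100, 500 and 1000 nM. Three screens per line were run, keeping only lines with replicate Pearson r >0.7 and median Z' >0.3.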

RESVERATROL = compound: Oc1ccc(/C=C/c2cc(O)cc(O)c2)cc1 [RESVERATROL]; assay: as above; details: exposure time: 5 days
How it was run: as §1

DU4475 BREAST showed a surviving fraction (VISMODEGIB; 0.5 nM) of 0.969 ± 0.25, a surviving fraction (VISMODEGIB; 1 nM) of 1.1 ± 0.28 and a surviving fraction (VISMODEGIB; 5 nM) of 1 ± 0.1. For the same test system, the surviving fraction (VISMODEGIB; 10 nM) was 0.895 ± 0.29, the surviving fraction (VISMODEGIB; 50 nM) was 1.1 ± 0.41 and the surviving fraction (VISMODEGIB; 100 nM) was 0.876 ± 0.17. For the same test system, the surviving fraction (VISMODEGIB; 500 nM) was 0.899 ± 0.22, the surviving fraction (VISMODEGIB; 1000 nM) was 0.977 ± 0.32 and the surviving fraction (RESVERATROL; 0.5 nM) was 1 ± 0.13. The surviving fraction (RESVERATROL; 1 nM) was 0.973 ± 0.051, the surviving fraction (RESVERATROL; 5 nM) was 0.967 ± 0.13 and the surviving fraction (RESVERATROL; 10 nM) was 0.964 ± 0.074. The surviving fraction (RESVERATROL; 50 nM) was 0.985 ± 0.1, the surviving fraction (RESVERATROL; 100 nM) was 1.05 ± 0.17 and the surviving fraction (RESVERATROL; 500 nM) was 1.02 ± 0.047. It also gave a surviving fraction (RESVERATROL; 1000 nM) of 1.1 ± 0.22.

For H23 LUNG, the surviving fraction (VISMODEGIB; 0.5 nM) was 0.981 ± 0.01, the surviving fraction (VISMODEGIB; 1 nM) was 0.997 ± 0.043 and the surviving fraction (VISMODEGIB; 5 nM) was 1.05 ± 0.03. It also gave a surviving fraction (VISMODEGIB; 10 nM) of 1.022 ± 0.0032, a surviving fraction (VISMODEGIB; 50 nM) of 1 ± 0.069 and a surviving fraction (VISMODEGIB; 100 nM) of 1.16 ± 0.072. For the same test system, the surviving fraction (VISMODEGIB; 500 nM) was 1.01 ± 0.034, the surviving fraction (VISMODEGIB; 1000 nM) was 1.06 ± 0.067 and the surviving fraction (RESVERATROL; 0.5 nM) was 0.99 ± 0.019. It also gave a surviving fraction (RESVERATROL; 1 nM) of 1.06 ± 0.051, a surviving fraction (RESVERATROL; 5 nM) of 1.02 ± 0.071 and a surviving fraction (RESVERATROL; 10 nM) of 1.05 ± 0.023. For the same test system, the surviving fraction (RESVERATROL; 50 nM) was 0.994 ± 0.044, the surviving fraction (RESVERATROL; 100 nM) was 1.07 ± 0.036 and the surviving fraction (RESVERATROL; 500 nM) was 1 ± 0.034. For the same test system, the surviving fraction (RESVERATROL; 1000 nM) was 1.11 ± 0.096.

Work on HCC78 LUNG yielded a surviving fraction (VISMODEGIB; 0.5 nM) of 1.08 ± 0.11, a surviving fraction (VISMODEGIB; 1 nM) of 0.941 ± 0.1 and a surviving fraction (VISMODEGIB; 5 nM) of 0.982 ± 0.14. For the same test system, the surviving fraction (VISMODEGIB; 10 nM) was 1.11 ± 0.14, the surviving fraction (VISMODEGIB; 50 nM) was 1.1 ± 0.21 and the surviving fraction (VISMODEGIB; 100 nM) was 1.32 ± 0.2. For the same test system, the surviving fraction (VISMODEGIB; 500 nM) was 1.04 ± 0.13, the surviving fraction (VISMODEGIB; 1000 nM) was 0.934 ± 0.19 and the surviving fraction (RESVERATROL; 0.5 nM) was 0.894 ± 0.15. For the same test system, the surviving fraction (RESVERATROL; 1 nM) was 0.894 ± 0.065, the surviving fraction (RESVERATROL; 5 nM) was 0.983 ± 0.035 and the surviving fraction (RESVERATROL; 10 nM) was 1.05 ± 0.15. For the same test system, the surviving fraction (RESVERATROL; 50 nM) was 1.12 ± 0.2, the surviving fraction (RESVERATROL; 100 nM) was 1.03 ± 0.1 and the surviving fraction (RESVERATROL; 500 nM) was 0.901 ± 0.26. The surviving fraction (RESVERATROL; 1000 nM) was 0.904 ± 0.1.

Work on HCC202 BREAST yielded a surviving fraction (VISMODEGIB; 0.5 nM) of 1.1 ± 0.14, a surviving fraction (VISMODEGIB; 1 nM) of 0.842 ± 0.13 and a surviving fraction (VISMODEGIB; 5 nM) of 1.06 ± 0.2. For the same test system, the surviving fraction (VISMODEGIB; 10 nM) was 1.04 ± 0.25, the surviving fraction (VISMODEGIB; 50 nM) was 0.945 ± 0.46 and the surviving fraction (VISMODEGIB; 100 nM) was 0.785 ± 0.2. For the same test system, the surviving fraction (VISMODEGIB; 500 nM) was 0.908 ± 0.14, the surviving fraction (VISMODEGIB; 1000 nM) was 0.732 ± 0.14 and the surviving fraction (RESVERATROL; 0.5 nM) was 1 ± 0.23. It also gave a surviving fraction (RESVERATROL; 1 nM) of 1.18 ± 0.11, a surviving fraction (RESVERATROL; 5 nM) of 1.14 ± 0.059 and a surviving fraction (RESVERATROL; 10 nM) of 1.06 ± 0.05. It also gave a surviving fraction (RESVERATROL; 50 nM) of 1.75 ± 0.46, a surviving fraction (RESVERATROL; 100 nM) of 1.49 ± 0.42 and a surviving fraction (RESVERATROL; 500 nM) of 1.32 ± 0.14. It also gave a surviving fraction (RESVERATROL; 1000 nM) of 1.33 ± 0.39.

Test System HCC1395 BREAST has a surviving fraction (VISMODEGIB; 0.5 nM) of 0.717 ± 0.018, a surviving fraction (VISMODEGIB; 1 nM) of 0.758 ± 0.12 and a surviving fraction (VISMODEGIB; 5 nM) of 0.818 ± 0.031. It also gave a surviving fraction (VISMODEGIB; 10 nM) of 0.83 ± 0.12, a surviving fraction (VISMODEGIB; 50 nM) of 0.681 ± 0.14 and a surviving fraction (VISMODEGIB; 100 nM) of 0.695 ± 0.055. The surviving fraction (VISMODEGIB; 500 nM) was 0.676 ± 0.052, the surviving fraction (VISMODEGIB; 1000 nM) was 0.772 ± 0.076 and the surviving fraction (RESVERATROL; 0.5 nM) was 0.968 ± 0.099. For the same test system, the surviving fraction (RESVERATROL; 1 nM) was 1.07 ± 0.075, the surviving fraction (RESVERATROL; 5 nM) was 1.1 ± 0.069 and the surviving fraction (RESVERATROL; 10 nM) was 1.28 ± 0.16. It also gave a surviving fraction (RESVERATROL; 50 nM) of 1.02 ± 0.094, a surviving fraction (RESVERATROL; 100 nM) of 1.21 ± 0.1 and a surviving fraction (RESVERATROL; 500 nM) of 1.05 ± 0.09. It also gave a surviving fraction (RESVERATROL; 1000 nM) of 0.985 ± 0.15.

Work on HCC1806 BREAST yielded a surviving fraction (VISMODEGIB; 0.5 nM) of 0.902 ± 0.088, a surviving fraction (VISMODEGIB; 1 nM) of 1.03 ± 0.043 and a surviving fraction (VISMODEGIB; 5 nM) of 1.18 ± 0.1. The surviving fraction (VISMODEGIB; 10 nM) was 1.05 ± 0.083, the surviving fraction (VISMODEGIB; 50 nM) was 0.932 ± 0.093 and the surviving fraction (VISMODEGIB; 100 nM) was 0.98 ± 0.1. For the same test system, the surviving fraction (VISMODEGIB; 500 nM) was 0.896 ± 0.11, the surviving fraction (VISMODEGIB; 1000 nM) was 0.904 ± 0.12 and the surviving fraction (RESVERATROL; 0.5 nM) was 1.04 ± 0.073. For the same test system, the surviving fraction (RESVERATROL; 1 nM) was 1.04 ± 0.072, the surviving fraction (RESVERATROL; 5 nM) was 1.18 ± 0.14 and the surviving fraction (RESVERATROL; 10 nM) was 1.18 ± 0.051. It also gave a surviving fraction (RESVERATROL; 50 nM) of 1.24 ± 0.049, a surviving fraction (RESVERATROL; 100 nM) of 1.23 ± 0.044 and a surviving fraction (RESVERATROL; 500 nM) of 0.963 ± 0.029. The surviving fraction (RESVERATROL; 1000 nM) was 0.963 ± 0.19.

For HCC1954 BREAST, the surviving fraction (VISMODEGIB; 0.5 nM) was 0.673 ± 0.096, the surviving fraction (VISMODEGIB; 1 nM) was 0.637 ± 0.0088 and the surviving fraction (VISMODEGIB; 5 nM) was 0.72 ± 0.015. The surviving fraction (VISMODEGIB; 10 nM) was 0.786 ± 0.03, the surviving fraction (VISMODEGIB; 50 nM) was 0.768 ± 0.18 and the surviving fraction (VISMODEGIB; 100 nM) was 0.6402 ± 0.0025. The surviving fraction (VISMODEGIB; 500 nM) was 0.618 ± 0.01, the surviving fraction (VISMODEGIB; 1000 nM) was 0.546 ± 0.025 and the surviving fraction (RESVERATROL; 0.5 nM) was 1.06 ± 0.055. It also gave a surviving fraction (RESVERATROL; 1 nM) of 1.12 ± 0.012, a surviving fraction (RESVERATROL; 5 nM) of 1.21 ± 0.065 and a surviving fraction (RESVERATROL; 10 nM) of 1.39 ± 0.098. For the same test system, the surviving fraction (RESVERATROL; 50 nM) was 1.03 ± 0.025, the surviving fraction (RESVERATROL; 100 nM) was 1.25 ± 0.19 and the surviving fraction (RESVERATROL; 500 nM) was 0.997 ± 0.065. For the same test system, the surviving fraction (RESVERATROL; 1000 nM) was 0.934 ± 0.064.

In the case of HCT15 LARGE INTESTINE, the surviving fraction (VISMODEGIB; 0.5 nM) is reported as 0.966 ± 0.01, the surviving fraction (VISMODEGIB; 1 nM) is reported as 1.04 ± 0.052 and the surviving fraction (VISMODEGIB; 5 nM) is reported as 0.998 ± 0.033. It also gave a surviving fraction (VISMODEGIB; 10 nM) of 1.02 ± 0.072, a surviving fraction (VISMODEGIB; 50 nM) of 0.931 ± 0.034 and a surviving fraction (VISMODEGIB; 100 nM) of 1.01 ± 0.048. The surviving fraction (VISMODEGIB; 500 nM) was 0.9417 ± 0.0025, the surviving fraction (VISMODEGIB; 1000 nM) was 1.03 ± 0.033 and the surviving fraction (RESVERATROL; 0.5 nM) was 0.982 ± 0.12. For the same test system, the surviving fraction (RESVERATROL; 1 nM) was 1.03 ± 0.12, the surviving fraction (RESVERATROL; 5 nM) was 1.02 ± 0.1 and the surviving fraction (RESVERATROL; 10 nM) was 1.02 ± 0.093. For the same test system, the surviving fraction (RESVERATROL; 50 nM) was 1.05 ± 0.08, the surviving fraction (RESVERATROL; 100 nM) was 1.06 ± 0.095 and the surviving fraction (RESVERATROL; 500 nM) was 0.968 ± 0.15. For the same test system, the surviving fraction (RESVERATROL; 1000 nM) was 1.08 ± 0.11.
